Data as given in ChEMBL document CHEMBL1122514, “Studies on synthesis and anticancer activity of selected N-(2-fluoroethyl)-N-nitrosoureas” (1984).
Where “and” joins values, the source holds several entries; their conditions need not be identical. Equal values may be shown once.

Columns and labels:
[1] = species on record: Mus musculus; assay: optimal percentage of increased life span [(100 x MST treated mice / MST control mice) -100]; assay type: functional
[2] = system: Mus musculus; assay: Compound is evaluated for maximally tolerated dose (MTD) against intraperitoneally implanted B16 melanoma cells in mice; assay type: functional
[3] = system: Mus musculus; assay: Number of day-60 survivors at the optimal dose of 5 mg/kg; 3/10; assay type: functional
[4] = species on record: Mus musculus; assay: (§1) Optimal percentage of increased life span [(100 x MST treated mice / MST control mice) -100]; assay type: functional
[5] = system: Mus musculus; assay: Optimal percentage of increased life span [(100 x MST treated mice / MST control mice) -100] at the optimal dose of 5 mg/kg; assay type: functional
[6] = system: Mus musculus; assay: Compound is evaluated for antitumor activity against intraperitoneally implanted B16 melanoma cells in mice median survival time including day-60 survivors (MST); assay type: functional
[7] = system: Mus musculus; assay: Median survival time including day-60 survivors (MST), after post implantation at the optimal dose of 5 mg/kg; assay type: functional
[8] = species on record: Mus musculus; assay: Number of day-60 survivors; 3/10; assay type: functional
[9] = system: Mus musculus; assay: median survival time including day-60 survivors (MST), after post implantation at the optimal dose of 8 mg/kg; d=Not Attained; assay type: functional, organism-based; set-up: dose 8 mg/kg
[10] = system: Mus musculus; assay: Number of day-60 survivors at the optimal dose of 8 mg/kg; 8/10; assay type: functional
[11] = system: Mus musculus; assay: Optimal percentage of increased life span [(100 x MST treated mice / MST control mice) -100] at the optimal dose of 8 mg/kg; d=Not Attained; assay type: functional, organism-based; set-up: dose 8 mg/kg
[12] = system: Mus musculus; assay: Optimal percentage of increased life span [(100 x MST treated mice / MST control mice) -100] at the optimal dose of 20 mg/kg; d=Not Attained; assay type: functional, organism-based; set-up: dose 20 mg/kg
[13] = system: Mus musculus; assay: Median survival time including day-60 survivors (MST), after post implantation at the optimal dose of 20 mg/kg; d=Not attained; assay type: functional, organism-based; set-up: dose 20 mg/kg
[14] = species on record: Mus musculus; assay: Number of day-60 survivors; 0/10; assay type: functional
[15] = system: Mus musculus; assay: Number of day-60 survivors at the optimal dose of 20 mg/kg; 6/10; assay type: functional
[16] = species on record: Mus musculus; assay: Number of day-60 survivors; 1/10; assay type: functional
[17] = system: Mus musculus; assay: Number of day-60 survivors at the optimal dose of 20 mg/kg; 9/10; assay type: functional
[18] = system: Mus musculus; assay: Number of day-60 survivors at the optimal dose of 6.25 mg/kg; 9/10; assay type: functional
[19] = system: Mus musculus; assay: Optimal percentage of increased life span [(100 x MST treated mice / MST control mice) -100] at the optimal dose of 6.25 mg/kg; d=Not Attained; assay type: functional, organism-based; set-up: dose 6.25 mg/kg
[20] = system: Mus musculus; assay: Median survival time including day-60 survivors (MST), after post implantation at the optimal dose of 6.25 mg/kg; d=Not attained; assay type: functional, organism-based; set-up: dose 6.25 mg/kg
[21] = system: Mus musculus; assay: median survival time including day-60 survivors (MST), after post implantation at the optimal dose of 20 mg/kg; assay type: functional
[22] = system: Mus musculus; assay: Optimal percentage of increased life span [(100 x MST treated mice / MST control mice) -100] at the optimal dose of 20 mg/kg; assay type: functional
[23] = system: Mus musculus; assay: Number of day-60 survivors at the optimal dose of 20 mg/kg; 3/10; assay type: functional
[24] = system: Mus musculus; assay: median survival time including day-60 survivors (MST), after post implantation at the optimal dose of 5 mg/kg; assay type: functional
[25] = species on record: Mus musculus; assay: Number of day-60 survivors; 2/10; assay type: functional
[26] = species on record: Mus musculus; assay: as §1; assay type: functional; remark: listed apart in the source
[27] = system: Mus musculus; assay: Optimal percentage of increased life span [(100 x MST treated mice / MST control mice) -100] at the optimal dose of 10 mg/kg; d=Not Attained; assay type: functional, organism-based; set-up: dose 10 mg/kg
[28] = species on record: Mus musculus; assay: Optimal percentage of increased life span [(100 x MST treated mice / MST control mice) -100]; f=Not Attained; assay type: functional, organism-based
[29] = system: Mus musculus; assay: Compound is evaluated for antitumor activity against intraperitoneally implanted B16 melanoma cells in mice median survival time including day-60 survivors (MST); f=Not attained; assay type: functional, organism-based
[30] = system: Mus musculus; assay: Median survival time including day-60 survivors (MST), after post implantation at the optimal dose of 10 mg/kg; d=Not attained; assay type: functional, organism-based; set-up: dose 10 mg/kg
[31] = species on record: Mus musculus; assay: Number of day-60 survivors; 4/10; assay type: functional
[32] = species on record: Mus musculus; assay: Number of day-60 survivors; 5/10; assay type: functional
[33] = system: Mus musculus; assay: Number of day-60 survivors at the optimal dose of 10 mg/kg; 7/10; assay type: functional
[34] = system: Mus musculus; assay: median survival time including day-60 survivors (MST), after post implantation at the optimal dose of 32 mg/kg; assay type: functional
[35] = system: Mus musculus; assay: Optimal percentage of increased life span [(100 x MST treated mice / MST control mice) -100] at the optimal dose of 32 mg/kg; assay type: functional
[36] = system: Mus musculus; assay: Number of day-60 survivors at the optimal dose of 32 mg/kg; 1/10; assay type: functional

**Q.** `O=NN(CCF)C(=O)NCCO` was tested. Which ILS [1] did it give?
**A.** 131%

**Q.** And the MTD [2]?
**A.** 60 mg/kg

**Q.** And the Survivors [3]?
**A.** 3

**Q.** And the ILS [4]?
**A.** 150%

**Q.** And the ILS at 5 mg/kg [5]?
**A.** 138%

**Q.** What about the MST [6] of the same compound?
**A.** 50 days and 42.8 days

**Q.** What about the MST [7] of the same compound?
**A.** 45.8 days

**Q.** What about the Survivors [8] of the same compound?
**A.** 3

**Q.** With `O=NN(CCCl)C(=O)NC1CCC(=O)NC1=O` (centres undefined) as the compound, how does the MST [9] read?
**A.** Not attained

**Q.** And the Survivors [10]?
**A.** 8

**Q.** What about the ILS [11] of the same compound?
**A.** Not attained

**Q.** `O=NN(CCF)C(=O)NC1CCCCC1O` (centres undefined) was tested. Which MTD [2] did it give?
**A.** 60 mg/kg

**Q.** What about the ILS [4] of the same compound?
**A.** 122% and 109%

**Q.** And the ILS [12]?
**A.** Not attained

**Q.** What about the MST [6] of the same compound?
**A.** 48 days and 35.8 days

**Q.** What about the MST [13] of the same compound?
**A.** Not attained

**Q.** What about the Survivors [14] of the same compound?
**A.** 0

**Q.** And the Survivors [8]?
**A.** 3

**Q.** And the Survivors [15]?
**A.** 6

**Q.** For `O=NN(CCF)C(=O)NC1CCC(=O)NC1=O` (centres undefined), which MTD [2] is on record?
**A.** 60 mg/kg

**Q.** And the ILS [4]?
**A.** 109% and 133%

**Q.** What about the ILS [12] of the same compound?
**A.** Not attained

**Q.** What about the MST [6] of the same compound?
**A.** 45.3 days and 40.3 days

**Q.** And the MST [13]?
**A.** Not attained

**Q.** What about the Survivors [16] of the same compound?
**A.** 1

**Q.** What about the Survivors [8] of the same compound?
**A.** 3

**Q.** What about the Survivors [17] of the same compound?
**A.** 9

**Q.** Which Survivors [18] does the source give for `O=NN(CCCl)C(=O)NCCO` [ELMUSTINE] here?
**A.** 9

**Q.** What about the ILS [19] of the same compound?
**A.** Not attained

**Q.** And the MST [20]?
**A.** Not attained

**Q.** For `O=NN(CCF)C(=O)NC1CCCCC1`, which MST [21] is on record?
**A.** 44 days

**Q.** What about the MTD [2] of the same compound?
**A.** 60 mg/kg

**Q.** And the ILS [4]?
**A.** 71%

**Q.** And the ILS at 20 mg/kg [22]?
**A.** 129%

**Q.** What about the MST [6] of the same compound?
**A.** 37 days

**Q.** What about the Survivors [16] of the same compound?
**A.** 1

**Q.** What about the Survivors [23] of the same compound?
**A.** 3

**Q.** Which MST [24] does the source give for `O=NN(CCCl)C(=O)NC1C(O)CCCC1O` (centres undefined) here?
**A.** 33.3 days

**Q.** What about the Survivors [3] of the same compound?
**A.** 3

**Q.** And the ILS at 5 mg/kg [5]?
**A.** 73%

**Q.** Which MTD [2] does the source give for `O=NN(CCF)C(=O)NC1C(O)C(O)OC(CO)C1O` (centres undefined) here?
**A.** 60 mg/kg

**Q.** And the ILS [4]?
**A.** 110%

**Q.** And the MST [6]?
**A.** 50 days and 36 days

**Q.** And the Survivors [25]?
**A.** 2

**Q.** What about the Survivors [8] of the same compound?
**A.** 3

**Q.** What about the ILS [26] of the same compound?
**A.** 131%

**Q.** With `O=NN(CCF)C(=O)NC1C(O)CCCC1O` (centres undefined) as the compound, how does the ILS [1] read?
**A.** 163%

**Q.** What about the MTD [2] of the same compound?
**A.** 60 mg/kg

**Q.** And the ILS [27]?
**A.** Not attained

**Q.** What about the ILS [28] of the same compound?
**A.** Not attained

**Q.** And the MST [29]?
**A.** Not attained

**Q.** What about the MST [6] of the same compound?
**A.** 57 days

**Q.** What about the MST [30] of the same compound?
**A.** Not attained

**Q.** And the Survivors [31]?
**A.** 4

**Q.** What about the Survivors [32] of the same compound?
**A.** 5

**Q.** And the Survivors [33]?
**A.** 7

**Q.** For `O=NN(CCCl)C(=O)NC1CCCCC1` [LOMUSTINE], which MST [34] is on record?
**A.** 32 days

**Q.** And the ILS at 32 mg/kg [35]?
**A.** 66%

**Q.** And the Survivors [36]?
**A.** 1
